From US11083196B2, “Microbiocidal oxadiazole derivatives” (SYNGENTA PARTICIPATIONS AG, priority 2016, dated 2021)
Values joined by “and” are separate entries in the source; they are usually repeats but may differ in a detail not shown here. Equal values may be shown once.

Tests used:
[1] = system: Glomerella lagenarium (Colletotrichum lagenarium); assay: Fungicidal activity against Glomerella lagenarium (Colletotrichum lagenarium), liquid culture / cucumber / preventative (anthracnose); format: cell-based; conditions: Colletotrichum orbiculare, liquid culture (PDB), growth inhibition measured photometrically 3-4 days after application, compared to untreated control
Method: Mycelia fragments or conidia suspensions of a fungus, prepared either freshly from liquid cultures of the fungus or from cryogenic storage, are directly mixed into nutrient broth. DMSO solutions of the test compound (max. 10 mg/ml) is diluted with 0.025% Tween20 by a factor of 50 and 10 μl of this solution is pipetted into a microtiter plate (96-well format). The nutrient broth containing the fungal spores/mycelia fragments is then added to give an end concentration of the tested compound. The test plates are incubated in the dark at 24° C. and 96% relative humidity. The inhibition of fungal growth is determined photometrically after 2 to 7 days, depending on the pathosystem, and percent antifungal activity relative to the untreated check is calculated. Conidia of the fungus from cryogenic storage are directly mixed into nutrient broth (PDB potato dextrose broth). After placing a (DMSO) solution of test compound into a microtiter plate (96-well format), the nutrient broth containing the fungal spores is added. The test plates are incubated at 24° C. and the inhibition of growth is measured photometrically 3-4 days after application.

Phakopsora pachyrhizi = assay: Fungicidal activity against Phakopsora pachyrhizi / soybean / leaf disc preventative (Asian soybean rust); format: in vivo; conditions: foliar, 288 h, soybean leaf disks, inoculated one day after application, assessed 12-14 days after application, compared to untreated control
Method: Leaf disks or leaf segments of various plant species are cut from plants grown in a greenhouse. The cut leaf disks or segments are placed in multiwell plates (24-well format) onto water agar. The leaf disks are sprayed with a test solution before (preventative) or after (curative) inoculation. Compounds to be tested are prepared as DMSO solutions (max. 10 mg/ml) which are diluted to the appropriate concentration with 0.025% Tween20 just before spraying. The inoculated leaf disks or segments are incubated under defined conditions (temperature, relative humidity, light, etc.) according to the respective test system. A single evaluation of disease level is carried out 3 to 14 days after inoculation, depending on the pathosystem. Percent disease control relative to the untreated check leaf disks or segments is then calculated. Soybean leaf disks are placed on water agar in multiwell plates (24-well format) and sprayed with the formulated test compound diluted in water. One day after application leaf discs are inoculated by spraying a spore suspension on the lower leaf surface. After an incubation period in a climate cabinet of 24-36 hours in darkness at 20° C. and 75% rh leaf disc are kept at 20° C. with 12 h light/day and 75% rh. The activity of a compound is assessed as percent disease control compared to untreated when an appropriate level of disease damage appears in untreated check leaf disks (12-14 days after application).

[2] = system: Puccinia recondita f. sp. tritici; assay: Fungicidal activity against Puccinia recondita f. sp. tritici / wheat / leaf disc curative (brown rust); format: in vivo; conditions: foliar, 144 h, wheat leaf segments cv. Kanzler, applied 1 day after inoculation, assessed 6-8 days after application, compared to untreated control
Method: Leaf disks or leaf segments of various plant species are cut from plants grown in a greenhouse. The cut leaf disks or segments are placed in multiwell plates (24-well format) onto water agar. The leaf disks are sprayed with a test solution before (preventative) or after (curative) inoculation. Compounds to be tested are prepared as DMSO solutions (max. 10 mg/ml) which are diluted to the appropriate concentration with 0.025% Tween20 just before spraying. The inoculated leaf disks or segments are incubated under defined conditions (temperature, relative humidity, light, etc.) according to the respective test system. A single evaluation of disease level is carried out 3 to 14 days after inoculation, depending on the pathosystem. Percent disease control relative to the untreated check leaf disks or segments is then calculated. Wheat leaf segments cv. Kanzler are placed on agar in multiwell plates (24-well format). The leaf segments are inoculated with a spore suspension of the fungus. Plates are stored in darkness at 19° C. and 75% rh. The formulated test compound diluted in water is applied 1 day after inoculation. The leaf segments are incubated at 19° C. and 75% rh under a light regime of 12 h light/12 h darkness in a climate cabinet and the activity of a compound is assessed as percent disease control compared to untreated when an appropriate level of disease damage appears in untreated check leaf segments (6-8 days after application).

[3] = system: Puccinia recondita f. sp. tritici; assay: Fungicidal activity against Puccinia recondita f. sp. tritici / wheat / leaf disc preventative (brown rust); format: in vivo; conditions: foliar, 168 h, wheat leaf segments cv. Kanzler, inoculated 1 day after application, assessed 7-9 days after application, compared to untreated control
Method: Leaf disks or leaf segments of various plant species are cut from plants grown in a greenhouse. The cut leaf disks or segments are placed in multiwell plates (24-well format) onto water agar. The leaf disks are sprayed with a test solution before (preventative) or after (curative) inoculation. Compounds to be tested are prepared as DMSO solutions (max. 10 mg/ml) which are diluted to the appropriate concentration with 0.025% Tween20 just before spraying. The inoculated leaf disks or segments are incubated under defined conditions (temperature, relative humidity, light, etc.) according to the respective test system. A single evaluation of disease level is carried out 3 to 14 days after inoculation, depending on the pathosystem. Percent disease control relative to the untreated check leaf disks or segments is then calculated. Wheat leaf segments cv. Kanzler are placed on agar in multiwell plates (24-well format) and sprayed with the formulated test compound diluted in water. The leaf disks are inoculated with a spore suspension of the fungus 1 day after application. The inoculated leaf segments are incubated at 19° C. and 75% rh under a light regime of 12 h light/12 h darkness in a climate cabinet and the activity of a compound is assessed as percent disease control compared to untreated when an appropriate level of disease damage appears in untreated check leaf segments (7-9 days after application).

| Structure (SMILES) | inhibition of growth at 20 ppm [1] | pest or weed control at 200 ppm (Phakopsora pachyrhizi) | pest or weed control at 200 ppm [2] | pest or weed control at 200 ppm [3] | melting point |
| --- | --- | --- | --- | --- | --- |
| CC1COC(c2ccc(-c3noc(C(F)(F)F)n3)cc2)=N1 (centres unmarked) [Compound A-1, 3-[4-(4-methyl-4,5-dihydrooxazol-2-yl)phenyl]-5-(trifluoromethyl)-1,2,4-oxadiazole] | ≥ 80% | ≥ 80% | ≥ 80% | ≥ 80% | 77 to 80 °C |
| FC(F)(F)c1nc(-c2ccc(C3=NCCO3)cc2)no1 [Compound A-3, 3-[4-(4,5-dihydrooxazol-2-yl)phenyl]-5-(trifluoromethyl)-1,2,4-oxadiazole] | – | ≥ 80% | ≥ 80% | ≥ 80% | 120 to 125 °C |
| CC1=NOC(c2ccc(-c3noc(C(F)(F)F)n3)cc2)C1 (centres unmarked) [Compound A-4, 3-[4-(3-methyl-4,5-dihydroisoxazol-5-yl)phenyl]-5-(trifluoromethyl)-1,2,4-oxadiazole] | ≥ 80% | ≥ 80% | ≥ 80% | ≥ 80% | 89 to 92 °C |
| CCC1=NOC(c2ccc(-c3noc(C(F)(F)F)n3)cc2)C1 (centres unmarked) [Compound A-5, 3-[4-(3-ethyl-4,5-dihydroisoxazol-5-yl)phenyl]-5-(trifluoromethyl)-1,2,4-oxadiazole] | ≥ 80% | ≥ 80% | ≥ 80% | ≥ 80% | 75 to 80 °C |
| CCCC1=NOC(c2ccc(-c3noc(C(F)(F)F)n3)cc2)C1 (centres unmarked) [Compound A-6, 3-[4-(3-propyl-4,5-dihydroisoxazol-5-yl)phenyl]-5-(trifluoromethyl)-1,2,4-oxadiazole] | ≥ 80% | ≥ 80% | ≥ 80% | ≥ 80% | 79 to 83 °C |
| CC1(C)COC(c2ccc(-c3noc(C(F)(F)F)n3)cc2)NC1=O (centres unmarked) [Compound A-10, 5,5-dimethyl-2-[4-[5-(trifluoromethyl)-1,2,4-oxadiazol-3-yl]phenyl]-1,3-oxazinan-4-one] | ≥ 80% | ≥ 80% | – | ≥ 80% | 187.3 to 189 °C |
| FC(F)(F)c1nc(-c2ccc(C3CC(C4CC4)=NO3)cc2)no1 (centres unmarked) [Compound A-12, 3-[4-(3-cyclopropyl-4,5-dihydroisoxazol-5-yl)phenyl]-5-(trifluoromethyl)-1,2,4-oxadiazole] | ≥ 80% | ≥ 80% | – | ≥ 80% | 109 to 112 °C |
| COCC(=O)NC1CSC(c2ccc(-c3noc(C(F)(F)F)n3)cc2)=N1 (centres unmarked) [Compound A-28, 2-methoxy-N-(2-[4-[5-(trifluoromethyl)-1,2,4-oxadiazol-3-yl]phenyl]-4,5-dihydrothiazol-4-yl]acetamide] | ≥ 80% | ≥ 80% | ≥ 80% | ≥ 80% | – |
| CC(C)(C)[S+]([O-])NC1CSC(c2ccc(-c3noc(C(F)(F)F)n3)cc2)=N1 (centres unmarked) [Compound A-29, 2-methyl-N-[2-[4-[5-(trifluoromethyl)-1,2,4-oxadiazol-3-yl]phenyl]-4,5-dihydrothiazol-4-yl]propane-2-sulfinamide] | ≥ 80% | ≥ 80% | ≥ 80% | ≥ 80% | – |
| O=C(C1CC1)N1CCCC1c1ccc(-c2noc(C(F)(F)F)n2)cc1 (centres unmarked) [Compound A-36, cyclopropyl-[2-[4-[5-(trifluoromethyl)-1,2,4-oxadiazol-3-yl]phenyl]pyrrolidin-1-yl]methanone] | ≥ 80% | ≥ 80% | ≥ 80% | – | – |
| CC(=O)OCc1cnc(-c2ccc(-c3noc(C(F)(F)F)n3)cc2)o1 [Compound C-1, [2-[4-[5-(trifluoromethyl)-1,2,4-oxadiazol-3-yl]phenyl]oxazol-5-yl]methyl acetate] | – | ≥ 80% | ≥ 80% | ≥ 80% | 69 to 71 °C |
| Cc1cnc(-c2ccc(-c3noc(C(F)(F)F)n3)cc2)o1 [Compound C-2, 3-[4-(5-methyloxazol-2-yl)phenyl]-5-(trifluoromethyl)-1,2,4-oxadiazole] | – | ≥ 80% | ≥ 80% | ≥ 80% | 110 to 111 °C and 109 to 111 °C |
| FC(F)(F)c1nc(-c2ccc(-c3nc(CCl)co3)cc2)no1 [Compound C-4, 3-[4-[4-(chloromethyl)oxazol-2-yl]phenyl]-5-(trifluoromethyl)-1,2,4-oxadiazole] | ≥ 80% | ≥ 80% | – | – | 106 to 107 °C |
| CCOCc1cc(-c2ccc(-c3noc(C(F)(F)F)n3)cc2)no1 [Compound C-5, 3-[4-[5-(ethoxymethyl)isoxazol-3-yl]phenyl]-5-(trifluoromethyl)-1,2,4-oxadiazole] | – | ≥ 80% | – | – | – |
| Fc1ccc(-c2ccc(-c3noc(C(F)(F)F)n3)cc2)cn1 [Compound D-6, 3-[4-(6-fluoro-3-pyridyl)phenyl]-5-(trifluoromethyl)-1,2,4-oxadiazole] | ≥ 80% | – | ≥ 80% | ≥ 80% | 75 to 80 °C |
| Fc1cc(-c2ccc(-c3noc(C(F)(F)F)n3)cc2)ccn1 [Compound D-7, 3-[4-(2-fluoro-4-pyridyl)phenyl]-5-(trifluoromethyl)-1,2,4-oxadiazole] | ≥ 80% | – | ≥ 80% | ≥ 80% | 105 to 110 °C |
| Nc1ccc(-c2ccc(-c3noc(C(F)(F)F)n3)cc2)cn1 [Compound D-12, 5-[4-[5-(trifluoromethyl)-1,2,4-oxadiazol-3-yl]phenyl]pyridin-2-amine] | ≥ 80% | ≥ 80% | – | ≥ 80% | 155 to 160 °C |
| Cc1cc(C)n(-c2ccc(-c3noc(C(F)(F)F)n3)cc2)n1 [Compound E-1, 3-[4-(3,5-dimethylpyrazol-1-yl)phenyl]-5-(trifluoromethyl)-1,2,4-oxadiazole] | ≥ 80% | – | ≥ 80% | ≥ 80% | 109 to 111 °C |
